US20180087086A1, “CELL EGRESS AND INVASION INHIBITORS AND THEIR USE AS ANTIPARASITICAL AGENTS” (THE JOHNS HOPKINS UNIVERSITY, priority 2015, published 2018)

What was measured:
[1] = system: P. berghei parasites constitutively expressing mCherry; experiment: live imaging of mCherry expressing sporozoite gliding; type: cell-based; conditions: for average gliding velocity: DMSO control 2.58+/−0.05 um/s; for total time spent gliding: 200 frame movies, control 46 frames; for pausing, fraction of active gliding time: control 7%; for waving sporozoites: manual assignment from z-stacks, control 15% waving
From the text: To determine the compound effects on the speed of gliding and type of gliding movement, live imaging of mCherry expressing parasites was used. P. berghei parasites constitutively expressing mCherry were allowed to settle on slides and imaged using an inverted microscope at 1.57 fps. ImageJ and the ToAST plugin were used to track parasites for a minimum of 150 frames in the 200 frame movies. The coordinates obtained via the automated tracking were much more useful than those using manual tracking. The ToAST plugin provides automatic identification of sporozoites from debris by aspect ratio and pixel analysis. The program also measures velocity and determine whether sporozoites are gliding in counterclockwise (CCW) or clockwise (CW) patterns, or whether they are stationary or waving, with large changes in vector angles between images.
Instead, the output position data was reanalyzed using similar algorithms as defined by ToAST. Sporozoites were assigned to one of four states at each time point, CW gliding, CCW gliding, stationary, or waving. To determine the speed of gliding, the average velocity was determined for sections of time in which the sporozoite was gliding continuously for more than 6 frames. Sporozoites would often glide for a number of frames and then stop gliding for a number of frames before continuing movement, resulting in more than one block of frames representing continuous gliding. The average for each sporozoite was a weighted average of the average speed during each block of gliding. The DMSO control parasites traveled in a CCW and CW pattern at an average speed of 2.58+/−0.05 um/s. […] Compound 4 gliding information was collected at a lower concentration compared to compound 18 because it was not possible to obtain a sufficient number of circularly gliding parasites for analysis at the higher concentrations (FIG. 11A).
As previously mentioned, sporozoites would often glide for several frames, then stop or pause, and then continue gliding. Upon initial observation of compound 4 samples, it was observed that parasites tended to glide in a stop-and-go manner, gliding for 4-6 frames and then stopping for 2-3 frames. To determine whether these pauses deviated from those observed in the control, the movies were analyzed to determine the total amount of time spent circularly gliding over the course of the 200 frame movies (FIG. 11C). Additionally, the fraction of time that the sporozoites paused for during active gliding was measured (FIG. 11D). A pause was defined as a cessation of circular gliding for no more than 10 frames. The fraction of paused frames to moving frames was measured for stretches of active gliding. […] Compound 4 increased pausing to 32% of the active gliding time, while compound 18 increased pauses to just 16% (FIG. 11D).
Z-stack images were created using ImageJ using the average intensity in each frame. From these frames, patterns of movements to one of two categories were assigned, circular gliding or waving. Waving sporozoites are defined as having on end attached while the other end moves or waves freely (FIG. 11F), resulting in large angular changes in the direction of the vector that lies along the sporozoite. Both compound 4 and 18 changed the ratio between gliding and waving sporozoites. In the control, nearly 85% of sporozoites are gliding circularly and 15% waving, whereas 72% and 66% are waving in compound 4 and 18 samples, respectively.

[2] = molecular target: MTRAP interaction with aldolase (Plasmodium falciparum, UniProt Q7KQL9); experiment: MTRAP-aldolase interaction via SPR; type: binding, P. falciparum; conditions: as a function of compound concentration
Chain of MTRAP interaction with aldolase (Q7KQL9 whole entry): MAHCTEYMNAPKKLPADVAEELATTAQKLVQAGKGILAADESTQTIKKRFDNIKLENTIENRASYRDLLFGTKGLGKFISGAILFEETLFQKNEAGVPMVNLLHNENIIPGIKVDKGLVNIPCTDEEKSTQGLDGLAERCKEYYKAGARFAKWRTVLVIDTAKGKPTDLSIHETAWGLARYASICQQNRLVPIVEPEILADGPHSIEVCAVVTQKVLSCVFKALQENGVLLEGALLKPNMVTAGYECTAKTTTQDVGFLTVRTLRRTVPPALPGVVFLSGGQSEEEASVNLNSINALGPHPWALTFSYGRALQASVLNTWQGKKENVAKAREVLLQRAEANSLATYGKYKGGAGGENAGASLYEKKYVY
Method: (§1) FIG. 5A (Top) TRAP and FIG. 5B (Bottom) MTRAP show the interaction with aldolase in the presence of compounds 4 and 18 as a function of compound concentration as measured via SPR.
(§2) The dissociation constant for PfAldolase and PfTRAP, MTRAP and PvTRAP was measured by determining the binding response at various concentrations of aldolase passed over a chip with bound, biotinylated peptides (FIG. 3). Dissociation constants were in the mid-nanomolar range and matched with values previously reported in the literature (Boucher LE and Bosch J, J. Mol Recognit. 2013 Oct. 26(10): 496-500).
(§3) (FIG. 5A) TRAP and (FIG. 5B) MTRAP interaction with aldolase in the presence of compounds 4 and 18 is illustrated as a function of compound concentration as measured via SPR.

[3] = system: P. falciparum sporozoites; experiment: dose-dependent killing of P. falciparum sporozoites; type: cell-based; conditions: Plasmodium falciparum
From the text: Observed phenotype at lower concentration pinpoints towards an on-target effect of the compounds.

[4] = molecular target: TRAP interaction with aldolase (Plasmodium falciparum, UniProt Q7KQL9); experiment: TRAP-aldolase interaction via SPR; type: binding, P. falciparum; conditions: as a function of compound concentration
Chain of TRAP interaction with aldolase (Q7KQL9 whole entry): as above
Chain of TRAP interaction with aldolase (P16893 516-559, further chain): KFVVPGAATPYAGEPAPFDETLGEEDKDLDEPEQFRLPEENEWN
Method: as §1, §2, §3

sporozoites [5] = experiment: sporozoite viability, LIVE/DEAD fixable violet assay; type: cell-based
From the text: However, the viability decrease is not high enough to account for the levels of non-gliding sporozoites observed in the gliding assays.

sporozoites [6] = experiment: sporozoite viability, propidium iodide exclusion assay; type: cell-based; conditions: 10 min at 18° C. then 15 min at 37° C., DMSO 85%, read-out: sporozoite viability (PI exclusion)
Method: FIG. 12A-FIG. 12C is a series of bar charts that show results of sporozoite viability assays. […] The total number of sporozoites was determined from phase images and the number of non-viable sporozoites from the count of red fluorescing sporozoites.
To determine if the compounds' mode of action was by causing cell death, viability assays to look at compound effects were performed. In a first test of viability, a propidium iodide exclusion assay was used (FIG. 12A). The total number of sporozoites was determined from in phase imaging and the number of non-viable sporozoites from the count of red fluorescing sporozoites. […] 250 μM of compound 4 reduced viability to 79% while compound 18 indicated a protective effect with 93% viability.

P. berghei sporozoites = experiment: trail radius of gliding sporozoites (ImageJ); type: cell-based; conditions: 62.5 μM; 130-150 trail radii; p-value <0.0001
Method: The trail radius was measured using ImageJ and the statistical analyses to determine standard error mean and t-test were performed using GraphPad.
The gliding phenotype was altered to determine whether the compounds were having off-target effects. While quantifying the number of deposited trails, the trail diameter in the presence of compounds was altered. An altered trail diameter is more likely due to either a direct effect on the motor or an effect on sporozoite shape. The diameter of the circular trails deposited by the parasites in the DMSO control was measured and in the presence of three compounds at 62.5 μM (FIG. 8). This concentration was chosen because at higher concentrations, there were not enough sporozoite trails to measure to do a statistical analysis of the results. Using ImageJ, circles were fit to trails in multiple images to measure 130-150 trail radii. The average trail radii increased in the presence of compounds 4, 17, and 18 with a p-value <0.0001. The increase in average trail size was 6.3 microns, 2.5 microns, and 3.6, for compounds 4, 17, and 18, respectively.

CCCCn1c(N)c(C(=O)NCc2ccccc2)c2nc3ccccc3nc21 [Compound 18, 2-amino-N-benzyl-1-butyl-1H-pyrrolo[2,3-b]quinoxaline-3-carboxamide]
average gliding velocity ([1]; 62.5 μM): 1.88+/−0.17 um/s | total time spent gliding [1]: 16 frames | pausing, fraction of active gliding time [1]: 16% | waving sporozoites [1]: 66% | binding interaction of MTRAP with aldolase in presence of compound [2]: Increased binding interaction | EC90 [3]: ~30 µM | binding interaction of TRAP with aldolase in presence of compound [4]: Increased binding interaction | effect on viability in LIVE/DEAD assay (sporozoites [5]): relatively mild | viability at 250 µM (sporozoites [6]): 93% | increase in average trail size (trail radius) vs DMSO control (P. berghei sporozoites): 3.6 microns

Brc1ccc(Nc2nc3ccccc3nc2Nc2ccc(Br)cc2)cc1 [Compound 4, N,N′-bis(4-bromophenyl)-2,3-quinoxalinediamine]
average gliding velocity ([1]; 3.9 μM): 1.81+/−0.09 um/s | total time spent gliding [1]: 25 frames | pausing, fraction of active gliding time [1]: 32% | waving sporozoites [1]: 72% | binding interaction of MTRAP with aldolase in presence of compound [2]: Increased binding interaction | EC90 [3]: ~125 µM | binding interaction of TRAP with aldolase in presence of compound [4]: Increased binding interaction | effect on viability in LIVE/DEAD assay (sporozoites [5]): greater decrease in viability | viability at 250 µM (sporozoites [6]): 79% | increase in average trail size (trail radius) vs DMSO control (P. berghei sporozoites): 6.3 microns
